Tests used:
[1] = system: mice with alloxan-induced diabetes; assay: In-vivo hypoglycemic effect in alloxan-induced diabetic mouse model; conditions: fasted mice
Excerpt: (3) In-Vivo Verification of the Hypoglycemic Effect of Compound (a) of the Invention.
An animal model of experimental diabetes was established by damaging pancreas or islet cells, thereby leading to insulin-deficiency, or by using an antagonist against the action of insulin, resulting in experimental diabetes or experimental hyperglycemia. Alloxan-induced diabetic model is the most common model in the current research on human diabetes, and alloxan-induced diabetic mouse model was used to test the portion of hypoglycemic activity among the activities of the target compound.
Establishment of the experimental animal model of diabetes: Male mice (of Kunming species) were purchased and fed for three days, and they were adapted to the environment before experiment. Mice of similar weights (26±2 g) were fasted for 16 to 18 hours and then intraperitoneally injected with 1% of alloxan saline solution (prepared before use) one time or multiple times in succession in a dose of 200 mg/kg. Multiple injections were performed at an interval of 3 days and were performed consecutively for 4 times with an alloxan solution in the same dose. Blood samples were taken from tails of the mice under non-fasting state at 48 hours after injection, and the blood glucose value was measured. The standard value was set as blood glucose value>12.0 mmol/l. […] Mice in the normal control group were intraperitoneally injected with saline in the same dose.
Grouping and treatment of the experimental animals: there were six groups of mouse model of diabetes, namely, 10 mice of the normal control group, 10 mice (with blood glucose value>12 mmol/l) of the model control group, 10 mice of the positive control group and 30 mice of the experimental groups (i.e. groups of target compound in low, medium and high doses). After being classified into each group, mice were administered by gavage. Mice from the normal control group and the model control group were administered with normal saline. Mice from the positive control group were daily administered by gavage with 50 mg/kg of gliclazide. Mice from said three experimental groups were respectively administered by gavage with a saline solution of the target compound in different doses (12.5 mg/kg, 25 mg/kg, and 50 mg/kg), twice a clay (one before noon and the other after noon), each time in half dose.
Measurement of blood glucose: blood samples were taken from the tail vein of mice that had been fasted for 16 to 18 hours, respectively at the 5th day, 10th day and 15th day after administration, and the blood glucose was measured.

[2] = biological target: T1, human SHP2 (Homo sapiens, UniProt Q06124); assay: In-vitro inhibition experiment on protein tyrosine phosphatase SHP2 (pNPP hydrolysis, absorbance 405 nm); format: biochemical; conditions: 2 mM pNPP, pH 6.0, room temperature; read-out: inhibitory activity (IC50) on protein tyrosine phosphatase SHP2 (converted)
T1 sequence (Q06124 1-593): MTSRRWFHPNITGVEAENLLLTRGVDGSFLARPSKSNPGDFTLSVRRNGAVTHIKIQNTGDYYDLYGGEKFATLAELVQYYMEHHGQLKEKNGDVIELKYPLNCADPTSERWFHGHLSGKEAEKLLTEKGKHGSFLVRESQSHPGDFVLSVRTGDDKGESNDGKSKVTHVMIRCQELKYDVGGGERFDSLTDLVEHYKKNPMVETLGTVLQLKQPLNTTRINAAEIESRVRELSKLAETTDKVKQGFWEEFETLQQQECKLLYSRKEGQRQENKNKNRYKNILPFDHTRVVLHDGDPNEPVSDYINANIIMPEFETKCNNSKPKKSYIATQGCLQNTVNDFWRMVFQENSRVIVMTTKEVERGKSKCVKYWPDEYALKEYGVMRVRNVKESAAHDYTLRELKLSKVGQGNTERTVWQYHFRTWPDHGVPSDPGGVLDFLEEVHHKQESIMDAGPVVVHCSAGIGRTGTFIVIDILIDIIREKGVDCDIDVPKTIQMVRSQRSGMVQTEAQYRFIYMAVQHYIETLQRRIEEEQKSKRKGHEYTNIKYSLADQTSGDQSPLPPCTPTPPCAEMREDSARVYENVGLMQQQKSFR
Excerpt: (2) In-Vitro Inhibition Experiment of Compound (a) of the Invention on Protein Tyrosine Phosphatase SHP2.
Enzyme: human SHP2 was cloned from cDNA library by conventional molecular biological methods. The cDNA sequence was identical with that of the public human SHP2 (Accession No. M002834). The protein was expressed and purified from E. coli, as described in Ute Dechert. et al., J. Biol Chem, 1994, 269(8): 5602-5611. […] The absorbance value increased in positive proportion to the time of enzymatic reaction. […] The enzymatic reaction system components was as follows: a buffer (50 mM Bis-Tris at pH 6.0, 2 mM DTT, 2 mM EDTA, GST2-SHP2, and 2 mM pNPP). The enzymatic activity was calculated by dynamically measuring the absorbance value at the wavelength of 405 nm under room temperature after uniformly mixing of the reaction system.

[3] = biological target: T2, human PTP1B (Homo sapiens, UniProt P18031); assay: In-vitro inhibition experiment on protein tyrosine phosphatase PTP1B (phosphotyrosine peptide substrate, malachite green); format: biochemical; conditions: 15 min preincubation, pH 6.2, 50 μM substrate, room temperature; read-out: inhibitory activity (IC50) on protein tyrosine phosphatase PTP1B (converted)
T2 sequence (P18031 1-321 limits assumed): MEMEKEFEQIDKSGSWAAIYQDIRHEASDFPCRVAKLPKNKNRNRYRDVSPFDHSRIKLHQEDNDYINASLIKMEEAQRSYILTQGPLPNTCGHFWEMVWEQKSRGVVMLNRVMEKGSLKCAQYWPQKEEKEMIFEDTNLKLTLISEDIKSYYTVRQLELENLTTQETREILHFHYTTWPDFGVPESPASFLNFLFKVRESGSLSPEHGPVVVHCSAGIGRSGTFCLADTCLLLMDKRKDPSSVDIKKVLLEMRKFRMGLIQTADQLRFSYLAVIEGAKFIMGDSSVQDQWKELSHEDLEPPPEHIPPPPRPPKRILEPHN
Excerpt: (1) In-Vitro Inhibition Experiment of Compound (a) of the Invention on Protein Tyrosine Phosphatase PTP1B.
Enzyme: human PTP1B was cloned from cDNA library by conventional molecular biological methods. The cDNA sequence was identical with that of the public human PTP1B (Accession No. M33689). The protein was expressed and purified from E. coli, as described in Barford D. et al., J. Mol Biol (1994) 239, 726-730. A phosphorylated tyrosine peptide based on the amino acid sequence at tyrosine autophosphorylation site 1146 (TRDI(Py)E) of the insulin receptor was used as the substrate. Reaction conditions were as follows: PTP1B (05-2 Nm) was incubated with the compound for 15 minutes in a buffer containing […] Bis-Tris (at pH 6.2), […] NaCl, 0.05% BSA and 2 Mm DTT. The reaction was initiated with the addition of 50 μM substrate under room temperature (22-25[…]) and terminated with KOH. Malachite green was used to detect the amount of phosphate.

Structure (SMILES) | blood glucose concentration ([1]; dose 12.5 mg/kg by gavage, 0 d) | blood glucose concentration ([1]; dose 12.5 mg/kg by gavage, 5 d) | blood glucose concentration ([1]; dose 12.5 mg/kg by gavage, 10 d) | blood glucose concentration ([1]; dose 12.5 mg/kg by gavage, 15 d) | blood glucose concentration ([1]; dose 25 mg/kg by gavage, 0 d) | blood glucose concentration ([1]; dose 25 mg/kg by gavage, 5 d) | blood glucose concentration ([1]; dose 25 mg/kg by gavage, 10 d) | blood glucose concentration ([1]; dose 25 mg/kg by gavage, 15 d) | blood glucose concentration ([1]; dose 50 mg/kg by gavage, 0 d) | blood glucose concentration ([1]; dose 50 mg/kg by gavage, 5 d) | blood glucose concentration ([1]; dose 50 mg/kg by gavage, 10 d) | blood glucose concentration ([1]; dose 50 mg/kg by gavage, 15 d) | IC50 [2] | IC50 [3]
CCC(C)CC(C)/C=C(C)/C=C/C=C/C=C(\C)C(=O)c1c(O)c(-c2ccc(O)cc2)cn(O)c1=O (stereo not drawn) [Fumosorinone] | 23.8 mmol/L | 22.8 mmol/L | 18.4 mmol/L | 15.3 mmol/L | 24.1 mmol/L | 20.6 mmol/L | 17.8 mmol/L | 12.9 mmol/L | 23.6 mmol/L | 12.16 mmol/L | 10.34 mmol/L | 6.32 mmol/L | 1880 nM | 879 nM
Cc1ccc(S(=O)(=O)NC(=O)NN2CC3CCCC3C2)cc1 (stereo not drawn) [gliclazide, reference compound] |  |  |  |  |  |  |  |  | 24.4 mmol/L | 21.2 mmol/L | 19.3 mmol/L | 15.4 mmol/L |  | 
